These results are taken from ChEMBL document CHEMBL1201862, “PubChem BioAssay data set” (2004).

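96-well plates; 48 h exposure; 5 concentrations. Endpoints by linear interpolation between flanking doses. Not reached: highest tested concentration assigned. The concentration for 50% growth inhibition is given as GI50.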 The source made the active and inactive calls. No stated cut-off is given here; in the data, active = GI50 up to about 1.1 µM and inactive = higher.

Test systems include A549; ACHN; HL-60; HOP-62; HOP-92; K562; KM12; LOX IMVI; NCI-H226; NCI-H460; OVCAR-5; RPMI-8226; RXF 393; SF-268; SK-OV-3; TK-10; A498; BT-549; PC-3.
Common to all, as to experiment: growth of human tumour cells (NCI), 48 h

Regarding `Cc1ccccc1NC(=O)CC(=O)n1nc(-c2ccccc2)c(/N=N/c2ccc([N+](=O)[O-])cc2)c1-c1ccccc1`, the GI50 was 16.1 µM (inactive) with A549; 11.2 µM (inactive) in the assay on ACHN; 19.9 µM (inactive) in the assay with HL-60; 16 µM (inactive) with HOP-62; 11.4 µM (inactive) with HOP-92; 12.3 µM (inactive) with K562. The GI50 was 16.7 µM (inactive) in the assay on KM12; 20.6 µM (inactive) in the assay with LOX IMVI; 14.1 µM (inactive) in the assay with NCI-H226; 31.5 µM (inactive) with NCI-H460; 32 µM (inactive) with OVCAR-5; 19.2 µM (inactive) with RPMI-8226. The GI50 is 19.1 µM (inactive) with RXF 393, 21.2 µM (inactive) in the assay with SF-268, 16.7 µM (inactive) in the assay on SK-OV-3 and 37.1 µM (inactive) with TK-10.

As for `COc1cc2nc(-c3cccs3)nc(Cl)c2cc1OC`, the GI50 is 19.8 µM (inactive) with A498; > 100 µM (inactive) in the assay with A549; > 100 µM (inactive) with ACHN; > 100 µM (inactive) with BT-549; > 100 µM (inactive) with HL-60; > 100 µM (inactive) with HOP-62. For the same compound, the GI50 is 69.5 µM (inactive) in the assay on K562; > 100 µM (inactive) with KM12; > 100 µM (inactive) with NCI-H226; > 100 µM (inactive) in the assay on NCI-H460; > 100 µM (inactive) in the assay with OVCAR-5; > 100 µM (inactive) with PC-3. Besides, the GI50 in the assay on SF-268, in the assay on SK-OV-3 and with TK-10 was > 100 µM (inactive) each time.

On to `CC(C)(C)C(=O)C(CC(=O)c1ccccc1)C(=O)C(C)(C)C`, for which the GI50 in the assay with A498 is > 100 µM (inactive); in the assay on A549, > 100 µM (inactive); in the assay on ACHN it was > 100 µM (inactive); with HL-60, > 100 µM (inactive); with HOP-62, 99.1 µM (inactive); in the assay with HOP-92, 44.7 µM (inactive). Also, the GI50 with K562, in the assay with KM12, with LOX IMVI, with NCI-H226, in the assay with NCI-H460 and in the assay with OVCAR-5 was > 100 µM (inactive) throughout. Further, the GI50 was > 100 µM (inactive) in the assay on PC-3; > 100 µM (inactive) in the assay on RPMI-8226; 83.9 µM (inactive) in the assay on SF-268; > 100 µM (inactive) in the assay with SK-OV-3; > 100 µM (inactive) in the assay on TK-10.

With `O=C(NCCCCCCNC(=O)c1cccc2ccccc12)c1cccc2ccccc12`, the GI50 is 24.3 µM (inactive) with A498; 35.4 µM (inactive) in the assay with A549; 31.4 µM (inactive) with ACHN; > 100 µM (inactive) with HL-60; 20.5 µM (inactive) with HOP-62; 7.96 µM (inactive) in the assay on HOP-92. The GI50 in the assay with K562 was > 100 µM (inactive); in the assay on KM12 it was > 100 µM (inactive); in the assay on LOX IMVI it was 14.2 µM (inactive); in the assay with NCI-H226 it was 17.8 µM (inactive); in the assay on NCI-H460, 42.5 µM (inactive); in the assay on OVCAR-5, > 100 µM (inactive). The GI50 in the assay with RPMI-8226 is > 100 µM (inactive); in the assay on RXF 393, 8.51 µM (inactive); in the assay on SF-268 it was 10.3 µM (inactive); with SK-OV-3, 21.2 µM (inactive); in the assay with TK-10, 14.9 µM (inactive).

As for `Nc1cc2[nH]c(=O)c3cc(Cl)ccc3c2cc1Cl`, the GI50 in the assay with A549 is 12.9 µM (inactive); with ACHN, 6.59 µM (inactive); in the assay on BT-549, > 100 µM (inactive); in the assay on HL-60, 32.4 µM (inactive); in the assay on HOP-62 it was 16.8 µM (inactive); with K562 it was 23 µM (inactive). The GI50 in the assay on KM12 is 15.1 µM (inactive); in the assay with LOX IMVI, 11.1 µM (inactive); with NCI-H226 it was 0.0649 µM (active); in the assay on NCI-H460, 5 µM (inactive); in the assay with OVCAR-5 it was 15.6 µM (inactive); in the assay with RPMI-8226, 0.514 µM (active). Further, the GI50 with SF-268 was 11.3 µM (inactive); in the assay with SK-OV-3 it was 3.98 µM (inactive); with TK-10 it was 11.8 µM (inactive).

Take `O=c1c2ccccc2n2c(S)nnc2n1-c1ccccc1`: the GI50 in the assay with A498, with A549, in the assay with ACHN, in the assay on HL-60, with HOP-62 and with K562 was > 100 µM (inactive) each time. Besides, the GI50 in the assay with KM12, in the assay with LOX IMVI, in the assay on NCI-H226, with NCI-H460, in the assay with OVCAR-5 and with PC-3 was > 100 µM (inactive) throughout. Moreover, the GI50 in the assay with RXF 393, with SF-268, with SK-OV-3 and in the assay with TK-10 was > 100 µM (inactive) each time.

With `CC(=O)N1c2ccccc2C2=NN=C(N(C)C)SC21` (stereo not drawn), the GI50 in the assay with A498 is 3.17 µM (inactive); in the assay on A549 it was 2.89 µM (inactive); with ACHN, 2.54 µM (inactive); with BT-549 it was 9.35 µM (inactive); in the assay on HL-60, 2.14 µM (inactive); in the assay with HOP-62, 3.8 µM (inactive). Also, the GI50 in the assay with K562 was 3.37 µM (inactive); in the assay with KM12, 3.18 µM (inactive); with LOX IMVI it was 2.1 µM (inactive); in the assay on NCI-H226, 3.12 µM (inactive); in the assay with NCI-H460, 2.46 µM (inactive); in the assay with OVCAR-5, 4.24 µM (inactive). For the same compound, the GI50 is 2.84 µM (inactive) with PC-3, 5.96 µM (inactive) in the assay on RPMI-8226, 1.82 µM (inactive) in the assay on SF-268 and 9.06 µM (inactive) in the assay on TK-10.

Turning to `O=C(O)Cn1ccc(=O)c2ccc([N+](=O)[O-])cc21`, the GI50 in the assay with A498, with A549, with ACHN, in the assay with BT-549, in the assay on HL-60 and in the assay on HOP-62 was > 100 µM (inactive) each time. For the same compound, the GI50 in the assay on K562, in the assay on KM12, in the assay on NCI-H226, with NCI-H460, in the assay on OVCAR-5 and in the assay on PC-3 was > 100 µM (inactive) throughout. The GI50 with SF-268, in the assay on SK-OV-3 and in the assay on TK-10 was > 100 µM (inactive) throughout.

Turning to `Cc1nc(N)c(N2CCN(C#N)CC2)c(O)n1`, the GI50 in the assay with A498 was > 100 µM (inactive); with A549 it was > 100 µM (inactive); in the assay on ACHN it was > 100 µM (inactive); in the assay with BT-549, > 100 µM (inactive); in the assay with HL-60 it was > 10 µM (inactive); in the assay on HOP-62, > 100 µM (inactive). Besides, the GI50 in the assay with K562, in the assay with KM12, in the assay on LOX IMVI, in the assay with NCI-H226, in the assay on NCI-H460 and in the assay with OVCAR-5 was > 100 µM (inactive) throughout. Further, the GI50 with PC-3, with RPMI-8226, in the assay on SF-268 and in the assay with TK-10 was > 100 µM (inactive) in each case.

Consider `CN(C)CCCNC(=O)N/N=C/c1cccc([N+](=O)[O-])c1`, for which the GI50 in the assay with A549, in the assay with ACHN, in the assay with K562, in the assay on KM12, with LOX IMVI and with NCI-H226 was > 100 µM (inactive) in each case. Moreover, the GI50 with NCI-H460, in the assay on RXF 393, with SF-268, in the assay on SK-OV-3 and in the assay on TK-10 was > 100 µM (inactive) in each case.

On to `CC(=O)Nc1cc(C(=O)Nc2cc(C(=O)Nc3cc(C(=O)Nc4cc(C(=O)Nc5cc(C(=O)NCCC(=O)NCCCN(C)C)n(C)c5)n(C)c4)n(C)c3)n(C)c2)n(C)c1`, for which the GI50 in the assay on A498 is > 100 µM (inactive); with A549, > 100 µM (inactive); with ACHN it was > 100 µM (inactive); in the assay with HL-60, 41.2 µM (inactive); in the assay with HOP-62, > 100 µM (inactive); in the assay on HOP-92, 33.5 µM (inactive). Besides, the GI50 is 58.7 µM (inactive) with K562; 23.6 µM (inactive) in the assay on KM12; 37.4 µM (inactive) with LOX IMVI; > 100 µM (inactive) with NCI-H226; > 100 µM (inactive) with NCI-H460; > 100 µM (inactive) in the assay on OVCAR-5. For the same compound, the GI50 is > 100 µM (inactive) with PC-3; > 100 µM (inactive) in the assay on RPMI-8226; > 100 µM (inactive) in the assay on RXF 393; 71.3 µM (inactive) with SF-268; > 100 µM (inactive) with SK-OV-3; > 100 µM (inactive) in the assay on TK-10.

Regarding `CC1(C)O[C@@H](CBr)C[C@H](C[C@H]2C[C@@H](O)C[C@@H](CCOCc3ccccc3)O2)O1`, the GI50 was 23 µM (inactive) with A498; 23.9 µM (inactive) in the assay with A549; 23.2 µM (inactive) with ACHN; 20.1 µM (inactive) with HOP-62; 25.5 µM (inactive) in the assay on HOP-92; 40.2 µM (inactive) in the assay on K562. For the same compound, the GI50 with KM12 is 21.5 µM (inactive); in the assay on LOX IMVI it was 26.2 µM (inactive); with NCI-H226 it was 17.5 µM (inactive); in the assay with NCI-H460, 29.9 µM (inactive); with OVCAR-5, 18.7 µM (inactive); with PC-3 it was 20.1 µM (inactive). Also, the GI50 in the assay on RPMI-8226 was 27.5 µM (inactive); with SF-268, 22 µM (inactive); in the assay with SK-OV-3 it was 18.1 µM (inactive); in the assay on TK-10 it was 20.4 µM (inactive).
